Measurements published in ChEMBL document CHEMBL1122438, “2-Phenylpyrazolo[1,5-a]pyrimidin-7-ones. A new class of nonsteroidal antiinflammatory drugs devoid of ulcerogenic activity” (J Med Chem, 1983).
Calls of active or inactive are those of the source. The rule behind the calls is not given here.

Experiments:
Rattus norvegicus [1] = assay: Percent reduction of edema in rat on 23rd day after oral administration of 50 mg/kg in antiarthritis assay; i = Inactive; assay type: functional, organism-based; parameters: dose 50 mg/kg; settings: at 50 mg/kg
Mus musculus [2] = assay: Percent reduction of edema in mice 3h after oral administration of 50 mg/kg in carrageenan model; assay type: functional
Rattus norvegicus [3] = assay: Percent reduction of edema in rat on 23rd day after oral administration of 30 mg/kg in antiarthritis assay; i = Inactive; assay type: functional, organism-based; parameters: dose 30 mg/kg; settings: at 30 mg/kg
Mus musculus [4] = assay: Percent reduction of edema in mice 3h after oral administration of 30 mg/kg in carrageenan model; assay type: functional
Mus musculus [5] = assay: Percent reduction of edema in mice 3h after oral administration of 17 mg/kg in carrageenan model; assay type: functional
Rattus norvegicus [6] = assay: Antiinflammatory activity evaluated by measuring % reduction of edema, 3h after oral administration of 100 mg/kg in carrageenan model; assay type: functional
[7] = Therapeutic index was expressed as LD50/ED50 carragreenin model; settings: mouse; read-out: TI
Mus musculus [8] = assay: Analgesic activity evaluated by measuring % analgesic effect, after oral administration of 30 mg/kg in acetic acid writhing test; assay type: functional
Rattus norvegicus [9] = species on record: Rattus norvegicus; assay: Antiinflammatory activity in carrageenan model, activity is expressed as ED50 values; assay type: functional
Mus musculus [10] = assay: Acute toxicity was evaluated as number of mice (tested=7) died after 72nd hour when 250 mg/kg is administered intraperitoneally; assay type: organism-based; parameters: dose 250 mg/kg, route intraperitoneal; settings: in vivo, ip
Rattus norvegicus [11] = assay: Percent reduction of edema in rat on 23rd day after oral administration of 30 mg/kg in antiarthritis assay; assay type: functional
Rattus norvegicus [12] = assay: Antiinflammatory activity evaluated by measuring % reduction of edema, 3h after oral administration of 25 mg/kg in carrageenan model; assay type: functional
Mus musculus [13] = assay: Analgesic activity evaluated by measuring % analgesic effect, after oral administration of 0.3 mg/kg in acetic acid writhing test; assay type: functional
Rattus norvegicus [14] = assay: Antiinflammatory activity evaluated by measuring % reduction of edema, 3h after oral administration of 10 mg/kg in carrageenan model; assay type: functional
Mus musculus [15] = assay: Analgesic activity evaluated by measuring % analgesic effect, after oral administration of 15 mg/kg in acetic acid writhing test; assay type: functional
Mus musculus [16] = assay: Acute toxicity was evaluated as number of mice (tested=7) died after 72nd hour when 280 mg/kg is administered intraperitoneally; assay type: organism-based; parameters: dose 280 mg/kg, route intraperitoneal; settings: in vivo, ip
Mus musculus [17] = assay: Acute toxicity was evaluated as number of mice (tested=7) died after 72nd hour when 260 mg/kg is administered intraperitoneally; assay type: organism-based; parameters: dose 260 mg/kg, route intraperitoneal; settings: in vivo, ip
[18] = Toxic activity is expressed as LD50 values; assay type: toxicity, organism-based; settings: mouse, in vivo
Mus musculus [19] = assay: Analgesic activity evaluated by measuring % analgesic effect, after oral administration of 5 mg/kg in acetic acid writhing test; assay type: functional
Mus musculus [20] = assay: Acute toxicity was evaluated as number of mice (tested=7) died after 72nd hour when 270 mg/kg is administered intraperitoneally; assay type: organism-based; parameters: dose 270 mg/kg, route intraperitoneal; settings: in vivo, ip
Mus musculus [21] = assay: Acute toxicity was evaluated as number of mice (tested=7) died after 72nd hour when 200 mg/kg is administered intraperitoneally; assay type: organism-based; parameters: dose 200 mg/kg, route intraperitoneal; settings: in vivo, ip
Mus musculus [22] = species on record: Mus musculus; assay: (§1) Analgesic activity in acetic acid writhing test, activity is expressed as ED50 values; assay type: functional
Rattus norvegicus [23] = species on record: Rattus norvegicus; assay: Ulcer index of the compound; assay type: functional
Mus musculus [24] = assay: Percent reduction of edema in mice 3h after oral administration of 20 mg/kg in carrageenan model; assay type: functional
Rattus norvegicus [25] = assay: Percent reduction of edema in rat on 23rd day after oral administration of 20 mg/kg in antiarthritis assay; assay type: functional
Rattus norvegicus [26] = assay: Percent reduction of edema in rat on 23rd day after oral administration of 20 mg/kg in antiarthritis assay; i = Inactive; assay type: functional, organism-based; parameters: dose 20 mg/kg; settings: at 20 mg/kg
Rattus norvegicus [27] = assay: Percent reduction of edema in rat on 23rd day after oral administration of 300 mg/kg in antiarthritis assay; i = Inactive; assay type: functional, organism-based; parameters: dose 300 mg/kg; settings: at 300 mg/kg
Mus musculus [28] = assay: Percent reduction of edema in mice 3h after oral administration of 300 mg/kg in carrageenan model; assay type: functional
Mus musculus [29] = assay: Acute toxicity was evaluated as number of mice (tested=7) died after 72nd hour when 350 mg/kg is administered intraperitoneally; assay type: organism-based; parameters: dose 350 mg/kg, route intraperitoneal; settings: in vivo, ip
Mus musculus [30] = assay: Analgesic activity evaluated by measuring % analgesic effect, after oral administration of 300 mg/kg in acetic acid writhing test; assay type: functional
Mus musculus [31] = assay: Analgesic activity evaluated by measuring % analgesic effect, after oral administration of 500 mg/kg in acetic acid writhing test; assay type: functional
Rattus norvegicus [32] = assay: Ulcer index at 100 mg/kg concentration; assay type: functional
Rattus norvegicus [33] = assay: Ulcer index at 50 mg/kg concentration; assay type: functional
Mus musculus [34] = assay: Acute toxicity was evaluated as number of mice (tested=7) died after 72nd hour when 225 mg/kg is administered intraperitoneally; assay type: organism-based; parameters: dose 225 mg/kg, route intraperitoneal; settings: in vivo, ip
Mus musculus [35] = assay: Acute toxicity was evaluated as number of mice (tested=7) died after 72nd hour when 300 mg/kg is administered intraperitoneally; assay type: organism-based; parameters: dose 300 mg/kg, route intraperitoneal; settings: in vivo, ip
Rattus norvegicus [36] = assay: Antiinflammatory activity evaluated by measuring % reduction of edema, 3h after oral administration of 50 mg/kg in carrageenan model; assay type: functional
Rattus norvegicus [37] = assay: Ulcer index at 200 mg/kg concentration; assay type: functional
Rattus norvegicus [38] = species on record: Rattus norvegicus; assay: Median ulcerogenic dose was determined; assay type: functional
Mus musculus [39] = assay: Acute toxicity was evaluated as number of mice (tested=7) died after 72nd hour when 170 mg/kg is administered intraperitoneally; assay type: organism-based; parameters: dose 170 mg/kg, route intraperitoneal; settings: in vivo, ip
Rattus norvegicus [40] = species on record: Rattus norvegicus; assay: as §1; assay type: functional

SMILES: Cc1cc(=O)n2nc(-c3ccccc3)cc2n1C
- Reduction (Rattus norvegicus [1]): inactive
- Reduction (Mus musculus [2]): 56.7%

SMILES: CCn1ccc(=O)n2nc(-c3ccc(C)cc3)cc12
- Reduction (Rattus norvegicus [3]): inactive
- Reduction (Mus musculus [4]): 35.9%

SMILES: CCn1ccc(=O)n2nc(-c3ccccc3)cc12
- Reduction (Mus musculus [5]): 54.1%
- Reduction (Rattus norvegicus [6]): 90.1%
- selectivity ratio [7]: 37.1
- Analgesic effect (Mus musculus [8]): 84.3%
- ED50 (Rattus norvegicus [9]): 7.3 mg/kg
- Acute toxicity (Mus musculus [10]): 1
- Reduction (Rattus norvegicus [11]): 42.7%
- Reduction (Rattus norvegicus [12]): 69.8%
- Analgesic effect (Mus musculus [13]): 20%
- Reduction (Rattus norvegicus [14]): 54.1%
- Analgesic effect (Mus musculus [15]): 69.3%
- Acute toxicity (Mus musculus [16]): 5
- Acute toxicity (Mus musculus [17]): 2
- LD50 [18]: 271 mg/kg
- Analgesic effect (Mus musculus [19]): 24.5%
- Acute toxicity (Mus musculus [20]): 3
- Acute toxicity (Mus musculus [21]): 0
- ED50 (Mus musculus [22]): 9.86 mg/kg
- UI (Rattus norvegicus [23]): 0.15

SMILES: CCCCn1ccc(=O)n2nc(-c3ccccc3)cc12
- Reduction (Mus musculus [24]): 26.6%
- Reduction (Rattus norvegicus [25]): 59.8%

SMILES: CCn1ccc(=O)n2nc(-c3ccccc3)c(SSc3c(-c4ccccc4)nn4c(=O)ccn(CC)c34)c12
- Reduction (Rattus norvegicus [3]): inactive
- Reduction (Mus musculus [4]): 37.5%

SMILES: CCOC(=O)/C=C/n1ccc(=O)n2nc(-c3ccccc3)cc12
- Reduction (Rattus norvegicus [3]): inactive
- Reduction (Mus musculus [4]): 23.4%

SMILES: O=c1ccn(CCO)c2cc(-c3ccccc3)nn12
- Reduction (Rattus norvegicus [3]): inactive
- Reduction (Mus musculus [4]): 16.5%

SMILES: CCOC(Cn1ccc(=O)n2nc(-c3ccccc3)cc12)OCC
- Reduction (Mus musculus [24]): 12.5%
- Reduction (Rattus norvegicus [26]): inactive

SMILES: CCn1ccc(=O)n2nc(C)cc12
- Reduction (Rattus norvegicus [3]): inactive
- Reduction (Mus musculus [4]): 7.3%

SMILES: Oc1ccnc2cc(-c3ccccc3)nn12
- Reduction (Rattus norvegicus [27]): inactive
- Reduction (Mus musculus [28]): 27.3%

SMILES: CCn1ccc(=O)n2nc(-c3ccccc3)c(N=O)c12
- Reduction (Rattus norvegicus [3]): inactive
- Reduction (Mus musculus [4]): 7.03%

SMILES: CCCCC1C(=O)N(c2ccccc2)N(c2ccccc2)C1=O [PHENYLBUTAZONE]
- Acute toxicity (Mus musculus [29]): 7
- Reduction (Mus musculus [24]): 52.9%
- Analgesic effect (Mus musculus [30]): 57.7%
- selectivity ratio [7]: 18.2
- Analgesic effect (Mus musculus [31]): 73%
- ED50 (Rattus norvegicus [9]): 13.1 mg/kg
- Reduction (Rattus norvegicus [12]): 52.9%
- UI (Rattus norvegicus [32]): 2.55
- UI (Rattus norvegicus [33]): 1.35
- Reduction (Rattus norvegicus [14]): 48.7%
- Acute toxicity (Mus musculus [34]): 2
- Acute toxicity (Mus musculus [35]): 4
- LD50 [18]: 238 mg/kg
- Reduction (Rattus norvegicus [36]): 62.9%
- Reduction (Rattus norvegicus [25]): 20.7%
- UI (Rattus norvegicus [37]): 3.2
- UD50 (Rattus norvegicus [38]): 72.4 mg/kg
- Acute toxicity (Mus musculus [39]): 0
- ED50 (Rattus norvegicus [40]): 274 mg/kg
